Holding throughout (type): in vivo
Experiment [1] has as its system Botrytis cinerea. Briefly: Botrytis test (bean)/protective. As to conditions: protective, 3 days after inoculation. As for the experimental part: After the spray coating has dried on, 2 small pieces-of agar covered with Botrytis cinerea are placed on each leaf. The inoculated plants are placed in a darkened humid chamber at 20° C.
3 days after the inoculation, the size of the infected spots on the leaves is evaluated.

In experiment [2] the test system is Leptosphaeria nodorum. Briefly: Leptosphaeria nodorum test (wheat)/protective. To be noted: protective, 10 days after inoculation. As for the experimental part: Solvent: 100 parts by weight of dimethylformamide
Emulsifier: 0.25 parts by weight of alkylaryl polyglycol ether
(§1) To produce a suitable preparation of active compound, 1-part by weight of active compound is mixed with the stated amounts of solvent and emulsifier, and the concentrate is diluted with water to the desired concentration.
To test for protective activity, young plants are sprayed with the preparation of active compound until dew-moist. After the spray coating has dried on, the plants are sprayed with a spore suspension of Leptosphaeria nodorum. The plants remain for 48 hours in an incubation cabin at 20° C. and 100% relative atmospheric humidity.
(§2) The plants are placed in a greenhouse at a temperature of 15° C. and a relative atmospheric humidity of about 80%.
(§3) Evaluation is effected 10 days after the inoculation.

Experiment [3] deals with Erysiphe graminis f.sp. hordei. As to the kind of experiment: Erysiphe test (barley)/protective. As to conditions: protective, 50 g/ha, 7 days after inoculation. As for the experimental part:
(§4) Solvent: 10 parts by weight N-methyl-pyrrolidon
(§5) Emulsifier: 0.6 parts by weight alkylarylpoly-glycolether
To produce a suitable preparation of active compound, 1 part by weight of active compound is mixed with the stated amounts of solvent and emulsifier, and the concentrate is diluted with water to the desired concentration.
To test for protective activity, young plants are sprayed with the preparation of active compound until dew-moist. After the spray coating has dried on, the plants are dusted with spores of Erysiphe graminis f.sp. hordei.
The plants are placed in a greenhouse at a temperature of about 20° C. and a relative atmospheric humidty of about 80%, in order to promote the development of powdery mildew pustules.
(§6) Evaluation is carried out 7 days after the inoculation.

The test system of experiment [4] is Erysiphe graminis f. sp. hordei. Briefly: Erysiphe test (wheat) protective. To be noted: 7 days after inoculation. As for the experimental part: Solvent: 10 parts by weight N-methyl-pyrrolidone
as §5, §1
To test for protective activity, young plants are dusted with spores of Erysiphe graminis f. sp. hordei. […]
The plants are placed in a greenhouse at a temperature of about 20° C. and a relative atmospheric humidity of about 80%, in order to promote the development of powdery mildew pustules.
as §6

Experiment [5] deals with Erysiphe graminis f.sp.hordei. As to the kind of experiment: Erysiphe-test (wheat)/curative. As to conditions: curative, 200 g/ha, 7 days after inoculation. The procedure:
Solvent: 10 parts by weight of N-methyl-pyrrolidone Emulsifier: 0.6 parts by weight of alkylaryl-polglycolether To produce a suitable preparation of active compound, 1-part by weight of active compound is mixed with the stated amounts of solvent and emulsifier, and the concentrate is diluted with water to the desired concentration. To test for curative activity, young plants are dusted with spores of Erysiphe graminis f.sp.hordei. 48 hours after the inoculation, the plants are sprayed with the preparation of active compound until dew-moist. The plants are placed in a greenhouse at a temperature of about 20° C. and a relative atmospheric humidity of about 80%, in order to promote the development of powdery mildew pustules. Evaluation is carried out 7 days after the inoculation.

Experiment [6] concerns Leptosphaeria nodorum. Briefly: Leptosphaeria nodorum test (wheat)/curative. As to conditions: curative, 400 g/ha, 10 days after inoculation. The procedure: Solvent: 10 parts by weight of dimethyl-formamide
Emulsifier: 0.6 parts by weight of alkylaryl polyglycol ether
To produce a suitable preparation of active compound, 1-parts by weight of active compound is mixed with the stated amounts of solvent and emulsifier, and the concentrate is diluted with water to the desired concentration.
To test for curative activity, young plants are sprayed with the preparation of active compound until dew-moist. After the spray coating has dried on, the plants are sprayed with a spore suspension of Leptosphaeria nodorum. The plants remain for 48 hours in an incubation cabin at 20° C. and 100% relative atmospheric humidity.
as §2, §3

The subject of experiment [7] is Pyrenophora teres. Briefly: Pyrenophora teres test (barley)/protective. As to conditions: protective, 25 g/ha, 7 days after inoculation. As for the experimental part:
as §4, §5, §1
To test for protective activity, young plants are sprayed with the preparation of active compound until dew moist. After the spray coating has dried off, the plants are sprayed with a conidia suspension of Pyrenophora teres. The plants then remain in an incubation cabin at 20° C. and 100% relative atmospheric humidity for 48 hours.
The plants are placed in a greenhouse at a temperature of about 20° C. and a relative atmospheric humidity of about […].
Evaluation is carried out 7 days after inoculation.

Regarding `CC1(C(=O)Nc2ccc(O)c(Cl)c2Cl)CCCCC1` [(I)], the “Degree of effectiveness in % of the untreated control” value is listed as 51% in experiment [1] (5 ppm); 0% in experiment [2] (concentration not given); 0% in experiment [3]; 30% in experiment [4] (25 g/ha); 85% in experiment [4] (200 g/ha); 30% in experiment [5]. Moreover, in experiment [7], the “Degree of effectiveness in % of the untreated control” value was 33%. The “Degree of activity in % of the untreated control” value in experiment [6] came out at 25%. With `CO/C=C(\C(=O)OC)c1ccccc1Oc1cc(Oc2ccccc2C#N)ncn1` [(ηa)], the figures for the “Degree of effectiveness in % of the untreated control” value in experiment [3] and in experiment [4] (200 g/ha) were 15% and 79%, respectively.

With `CO/C=C(\C(=O)OC)c1ccccc1Oc1cc(Oc2ccccc2C#N)ncn1` [(ηb)], the “Degree of effectiveness in % of the untreated control” value in experiment [5] came to 75%.

As for `CO/N=C(\C(=O)OC)c1ccccc1COc1ccccc1C` [(ηb)], the “Degree of effectiveness in % of the untreated control” value in experiment [3] was found to be 85%; in experiment [4] (25 g/ha), 85%; in experiment [7] it was 33%. Further, the “Degree of activity in % of the untreated control” value in experiment [6] is recorded as 49%.

Regarding `COC(=O)Nc1nc2ccccc2[nH]1` [Carbendazim, methyl benzimidazole-2-carbamate], in experiment [1] (5 ppm), the “Degree of effectiveness in % of the untreated control” value was 52%. `N#Cc1c(Cl)c(Cl)c(Cl)c(C#N)c1Cl` [Chlorothalonil, tetrachloro-isophthalo-dinitrile]: in experiment [1] (200 ppm), the “Degree of effectiveness in % of the untreated control” value is listed as 37%.

In the case of `CN(C)S(=O)(=O)N(SC(F)(Cl)Cl)c1ccccc1` [Dichlofluanid, dichlofluanid], in experiment [1] (100 ppm), the “Degree of effectiveness in % of the untreated control” value is 32%. With `O=[N+]([O-])c1cc(C(F)(F)F)c(Cl)c([N+](=O)[O-])c1Nc1ncc(C(F)(F)F)cc1Cl` [Fluazinam, fluazinam], the “Degree of effectiveness in % of the untreated control” value in experiment [1] (5 ppm) was 20%. In the case of `O=C1c2ccccc2C(=O)N1SC(Cl)(Cl)Cl` [Phaltan, phaltan], the “Degree of effectiveness in % of the untreated control” value in experiment [1] (50 ppm) amounted to 0%. As to `CC12CC1(C)C(=O)N(c1cc(Cl)cc(Cl)c1)C2=O` (stereo not drawn) [Procymidone, procymidone], the “Degree of effectiveness in % of the untreated control” value in experiment [1] (50 ppm) is 44%. Consider `Cc1cc(C)nc(Nc2ccccc2)n1` [Pyrimethanil, pyrimethanil], for which, in experiment [1] (10 ppm), the “Degree of effectiveness in % of the untreated control” value worked out at 0%. Take `CC(C)(C)C(O)(CCc1ccc(Cl)cc1)Cn1cncn1` (stereo not drawn) [Tebuconazole]: the “Degree of effectiveness in % of the untreated control” value in experiment [2] (spray liquor 25 ppm) was 75%.

Consider `Cc1ccc(N(SC(F)(Cl)Cl)S(=O)(=O)N(C)C)cc1` [Tolylfluanid, tolylfluanid], for which the “Degree of effectiveness in % of the untreated control” value in experiment [1] (50 ppm) is recorded as 32%.

(Values after US6365195B2, “Fungicidal active compound combinations” (Bayer Aktiengesellschaft, priority 1993, dated 2002).)
